Measurements as given in US12172983B2, “EGFR inhibitors” (Blueprint Medicines Corporation, priority 2019, dated 2024).
pIC50: −log10 of the molar value.

Legend:
[1] = tested on: phosphorylation of EGFR (Tyr1068) in NCI-H1975 cell line that harbors the EGFR L858R T790M mutations; experiment: NCI-H1975 pEGFR AlphaLISA assay; assay type: cell-based; details: Homo sapiens, NCI-H1975, inhibition of phosphorylation of mutant EGFR in NCI-H1975 cells; 4-5 hours incubation; read-out: Ext pEGFR H1975
Outline: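 Phospho-EGFR Tyr1068 AlphaLISA readout: lysates taken from compound-treated H1975 cells (L858R T790M EGFR) after a 4-5 h exposure at 37 °C. Cells had adhered overnight beforehand. IC50 derived by plotting % pEGFR inhibition against log compound concentration.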

[2] = target: T1, EGFR (L858R T790M C797S) (Homo sapiens, UniProt P00533, C797S/L858R/T790M); experiment: Biochemical EGFR inhibition assay (Caliper mobility shift), EGFR LRTMCS mutant; details: inhibitory activity against EGFR LRTMCS mutant; apparent IC50; read-out: Ext Enz LRTMCS
T1 construct: purchased SignalChem E10-122VG
T1 sequence (P00533 25-1210 T790M/C797S/L858R): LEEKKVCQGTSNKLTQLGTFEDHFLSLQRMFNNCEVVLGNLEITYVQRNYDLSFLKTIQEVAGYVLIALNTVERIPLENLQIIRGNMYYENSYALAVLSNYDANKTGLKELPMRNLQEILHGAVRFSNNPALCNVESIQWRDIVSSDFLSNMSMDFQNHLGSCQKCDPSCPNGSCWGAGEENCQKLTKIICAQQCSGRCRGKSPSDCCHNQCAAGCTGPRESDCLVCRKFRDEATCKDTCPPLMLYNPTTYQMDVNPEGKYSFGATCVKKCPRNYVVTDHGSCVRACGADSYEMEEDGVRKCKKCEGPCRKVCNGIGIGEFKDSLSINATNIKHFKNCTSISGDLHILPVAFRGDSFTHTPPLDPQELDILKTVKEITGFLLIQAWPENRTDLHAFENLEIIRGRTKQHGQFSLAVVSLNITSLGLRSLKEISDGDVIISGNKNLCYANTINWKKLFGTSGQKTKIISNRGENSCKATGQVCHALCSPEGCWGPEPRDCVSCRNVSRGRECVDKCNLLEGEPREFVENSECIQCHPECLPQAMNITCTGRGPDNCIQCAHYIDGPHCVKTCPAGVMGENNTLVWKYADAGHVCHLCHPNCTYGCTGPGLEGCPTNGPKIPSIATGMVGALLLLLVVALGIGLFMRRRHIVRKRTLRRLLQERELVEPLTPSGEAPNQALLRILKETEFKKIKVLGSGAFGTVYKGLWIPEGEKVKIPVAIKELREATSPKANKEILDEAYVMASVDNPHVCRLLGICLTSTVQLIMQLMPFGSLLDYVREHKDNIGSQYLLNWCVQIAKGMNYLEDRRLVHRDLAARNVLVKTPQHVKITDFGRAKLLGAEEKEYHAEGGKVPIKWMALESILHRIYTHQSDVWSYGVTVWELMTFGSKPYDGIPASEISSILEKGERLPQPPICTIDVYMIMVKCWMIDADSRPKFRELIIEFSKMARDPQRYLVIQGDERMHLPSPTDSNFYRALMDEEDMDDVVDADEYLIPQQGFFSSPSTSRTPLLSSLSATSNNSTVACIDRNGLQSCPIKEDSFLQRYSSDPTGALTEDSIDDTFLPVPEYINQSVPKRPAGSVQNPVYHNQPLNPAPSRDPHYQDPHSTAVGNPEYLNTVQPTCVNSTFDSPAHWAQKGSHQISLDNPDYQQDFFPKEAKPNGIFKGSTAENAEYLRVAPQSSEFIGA
Outline: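 Each enzyme was allowed to phosphorylate 10–20% of its peptide at 25° C. before EDTA (35 mM) quench. Separated substrate and product peaks were measured by mobility shift, giving apparent IC50 values.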

SMILES	pIC50 [1]	pIC50 [2]
CC(CF)c1cnc(N2CC(CS(C)(=O)=O)C2)c2cnc(Nc3ccnc(N4CC[C@@H](O)[C@@](C)(F)C4)n3)cc12 (single isomer, unassigned) [Compound 163]	7.30 to 7.52	≥ 7.82
COC1CCN(c2nccc(Nc3cc4c(C(C)C)ccc(N5CC(CS(C)(=N)=O)C5)c4cn3)n2)CC1 (single isomer, unassigned) [Compound 15, (S)-imino((1-(5-isopropyl-3-((2-(4-methoxypiperidin-1-yl)pyrimidin-4-yl)amino)isoquinolin-8-yl)azetidin-3-yl)methyl)(methyl)-λ^6-sulfanone or (R)-imino((1-(5-isopropyl-3-((2-(4-methoxypiperidin-1-yl)pyrimidin-4-yl)amino)isoquinolin-8-yl)azetidin-3-yl)methyl)(methyl)-λ^6-sulfanone]	7.30 to 7.52	≥ 7.82
CO[C@@H]1CCN(c2nccc(Nc3cc4c(C(C)C)ccc(N5C[C@H](CS(C)(=O)=O)[C@H]5C)c4cn3)n2)C[C@@H]1OCCO (single isomer, unassigned) [Compound 296, 2-{[(3S,4R)-1-[4-({8-[(2R,3S)-3-(methanesulfonylmethyl)-2-methylazetidin-1-yl]-5-(propan-2-yl)isoquinolin-3-yl}amino)pyrimidin-2-yl]-4-methoxypiperidin-3-yl]oxy}ethan-1-ol or 2-{[(3R,4S)-1-[4-({8-[(2R,3S)-3-(methanesulfonylmethyl)-2-methylazetidin-1-yl]-5-(propan-2-yl)isoquinolin-3-yl}amino)pyrimidin-2-yl]-4-methoxypiperidin-3-yl]oxy}ethan-1-ol]	7.70 to 8.00	7.00 to 7.52

Further lines, results first:

pIC50 [1]	pIC50 [2]	SMILES
≥ 8.00	≥ 7.82	CO[C@H]1CCN(c2nccc(Nc3cc4c(C(C)C)ccc(N5C[C@H](CS(C)(=O)=O)[C@H]5C)c4cn3)n2)C[C@H]1OCCO (single isomer, unassigned) [Compound 295, 2-{[(3R,4S)-1-[4-({8-[(2R,3S)-3-(methanesulfonylmethyl)-2-methylazetidin-1-yl]-5-(propan-2-yl)isoquinolin-3-yl}amino)pyrimidin-2-yl]-4-methoxypiperidin-3-yl]oxy}ethan-1-ol or 2-{[(3S,4R)-1-[4-({8-[(2R,3S)-3-(methanesulfonylmethyl)-2-methylazetidin-1-yl]-5-(propan-2-yl)isoquinolin-3-yl}amino)pyrimidin-2-yl]-4-methoxypiperidin-3-yl]oxy}ethan-1-ol]
≥ 8.00	≥ 7.82	CO[C@H]1CCN(c2nccc(Nc3cc4c(C(C)C)ccc(N5CC(CS(C)(=O)=O)C5)c4cn3)n2)C[C@H]1F [Compound 63, N-(2-((3R,4S)-3-fluoro-4-methoxypiperidin-1-yl)pyrimidin-4-yl)-5-isopropyl-8-(3-(methylsulfonylmethyl)azetidin-1-yl)isoquinolin-3-amine]
≥ 8.00	≥ 7.82	CC(C)c1ccc(N2C[C@H](CS(C)(=O)=O)[C@H]2C)c2cnc(Nc3ccnc(N4CC[C@@H](OC[C@H](C)O)[C@@H](F)C4)n3)cc12 (single isomer, unassigned) [Compound 247, (2S)-1-{[(3S,4R)-3-fluoro-1-[4-({8-[(2R,3S)-3-(methanesulfonylmethyl)-2-methylazetidin-1-yl]-5-(propan-2-yl)isoquinolin-3-yl}amino)pyrimidin-2-yl]piperidin-4-yl]oxy}propan-2-ol or (2R)-1-{[(3S,4R)-3-fluoro-1-[4-({8-[(2R,3S)-3-(methanesulfonylmethyl)-2-methylazetidin-1-yl]-5-(propan-2-yl)isoquinolin-3-yl}amino)pyrimidin-2-yl]piperidin-4-yl]oxy}propan-2-ol]
≥ 8.00	≥ 7.82	CCc1ccc(N2C[C@H](CS(C)(=O)=O)[C@H]2C)c2cnc(Nc3ccnc(N4CC[C@@H](O)[C@@](C)(F)C4)n3)cc12 (single isomer, unassigned) [Compound 65]
